Values quoted from earlier work, collected in patent publication US4374828A, “Biologically active thymones from the thymus” (Board of Reagents, The University of Texas System, priority 1980, dated 1983).

Legend:
murine prothymocytes = details: in vitro
[1] = tested on: cells which had a B-lineage; details: in vitro

## (H) Arg^32 -Lys^33 -Asp^34 -Val^35 -Tyr^36 -OH [pentapeptide]
Murine prothymocytes
  Differentiation of prothymocytes to thymocytes (in words): induced, in vitro, differentiation of murine prothymocytes to thymocytes
[1]
  Differential induction of B-lineage cells (in words): inhibited, in vitro, the differential induction of cells which had a B-lineage

## NH2 -Ser-Glu-Phe-Leu-Glu^5 -Asp-Pro-Ser-Val-Leu^10 -Thr-Lys-Glu-Lys-Leu^15 -Lys-Ser-Glu-Leu-Val^20 -Ala-Asn-Val-Thr^25 -Leu-Pro-Ala-Gly-Glu^30 -Gln-Arg-Lys-Asp-Val^35 -Tyr-Val-Gln-Leu-Tyr^40 -Leu-Gln-Thr-Leu-Thr^45 -Ala-Val-Lys-Arg^49 -COOH (H-SEFLEDPSVLTKEKLKSELVANVTLPAGEQRKDVYVQLYLQTLTAVKR-OH) [thymin II, polypeptide of bovine thymin, renamed thymopoietin II]
Marrow cells
  Induction of marrow cells (in words): induce marrow cells to develop as intrathymic lymphocytes

## thymopoietin: a preparation of thymopoietin
Spleen cells of old mice
  Immune function of spleen cells (in words): increased the immune function of the spleen cells of old mice
